Assay results as given in patent US20150031656A1, “COMBINATION THERAPY FOR TREATING ANDROGEN DEFICIENCY” (REPROS THERAPEUTICS INC., priority 2012, published 2015).
Like-named read-outs stand apart in the source and are kept apart here.

Assays:
total testosterone = assay: Placebo controlled study of Androxal vs Androgel in hypogonadal men: testosterone; format: in vivo, human; settings: for mean increase in testosterone from baseline: oral, two weeks
Description: (§1) Half of the men in each of the Androxal™ and placebo arms were randomized into cohorts that underwent in-clinic sessions on days 1 and 14 to determine pharmacokinetic parameters for Androxal™ as well as cyclical changes in testosterone. The placebo and Androxal™ doses were administered in a double blind fashion. […] Following the two week drug exposure patients were followed for an additional seven to ten days to determine the status of their testosterone levels.

serum LH = assay: Androxal vs Androgel in hypogonadal men: serum LH; format: in vivo, human
Description: as §1

serum FSH = assay: Androxal vs Androgel in hypogonadal men: serum FSH; format: in vivo, human; settings: two weeks treatment and follow-up
Description: as §1

[1] = tested on: serum dihydroxytestosterone (DHT); assay: Androxal vs Androgel in hypogonadal men: DHT to total testosterone ratio; format: in vivo, human; settings: men on Androxal 50 mg; placebo group ratio 1.07
Description: as §1

triglycerides = assay: Androxal vs Androgel in hypogonadal men: triglycerides; format: in vivo, human; settings: men on Androxal, non-dose dependent, after two weeks of therapy
Description: as §1

[2] = Androxal vs Androgel in hypogonadal men: side effects; settings: two week exposure
Description: as §1

morning testosterone = assay: Androxal vs Testim, three month placebo-controlled trial: morning testosterone; format: in vivo, human; settings: for Median Morning Testosterone, Baseline T: before dosing; for Median Morning Testosterone, Baseline T / Median Morning Testosterone, Final T: no unit in table; for Median Morning Testosterone, Final T: end of three month dosing
Description: (§2) Over 900 men were screened to achieve a total of 108 men who met all criteria and were enrolled in the study. All 108 men enrolled in the study satisfied the requirement of at least one dose and one visit in which efficacy measures could be assessed. The subjects were randomized into four groups: (i) placebo; (ii) 12.5 mg Androxal; (iii) 25 mg Androxal; and (iv) Testim. There was no statistical difference among the groups in testosterone at baseline.

sperm counts = assay: Androxal vs Testim, three month trial: sperm counts; format: in vivo, human
Description: as §2
Sperm counts were assessed at baseline and after dosing was completed. Spermatogenesis is approximately a 64 day cycle and detection of early changes after 3 months of treatment would be expected. At baseline, the median values of all four arms were above the generally accepted lower level of sperm counts for normal males (20 million sperm per ml). […] The median sperm count for the men in the combined Androxal arms was 93.8 million sperm/ml (p value=0.001 compared to Testim). […] No drug related serious adverse effects occurred that led to discontinuation.

[3] = Androxal vs Testim, three month trial: tolerability; format: in vivo, human; settings: both doses (12.5 and 25 mg), three months
Description: as §2

serum testosterone = assay: Androxal vs Testim, 6 month spermatogenesis trial: serum testosterone; format: in vivo, human; settings: after 3 months of treatment, sustained for another 3 months
Description: (§3) The mean age of the subjects was 46 years and mean body weight was 233 pounds. […] Subjects were required to discontinue topical exogenous testosterone for at least 30 days prior to receiving study medication. Effects of the treatment on sperm parameters associated with fertility as well as on FSH and LH levels were evaluated following 3 and 6 months of therapy and one month after cessation of treatment. Semen analysis included semen volume, total sperm count, sperm concentration, percent motility and percent normal morphology. There were 6 laboratory visits including a screening (V1), baseline (V2) and post first dose visits at 1 month (V3), 3 months (V4) and 6 months (V5) as well as a one month post therapy follow-up visit (V6).

LH and FSH = assay: Androxal vs Testim, 6 month spermatogenesis trial: LH and FSH; format: in vivo, human; settings: secondary hypogonadal men, 3 and 6 months of therapy
Description: as §3

[4] = Androxal vs Testim, 6 month spermatogenesis trial: tolerability; format: in vivo, human; settings: 6 months of drug therapy
Description: as §3

testosterone = settings: for 24 hr T <300 ng/dl @ Week 6 / Any T >1100 ng/dl @ Week 6: number of men
Description: Sixty men with testosterone levels not exceeding 350 ng/dl were enrolled in the study and randomized to one of four parallel arms: (i) 6.25 mg Androxal (ii) 12.5 mg Androxal (iii) 25 mg Androxal or (iv) Androgel. The average age of men in the study was 53.1 (10.1) and their average body mass index (BMI) was 31.8 (6.1). The men were dosed for 6 weeks and then followed for an additional 7 days after cessation of treatment. Subjects in all arms visited the clinic every 2 weeks for assessments. Twenty-four hour assessments were made at baseline before dosing commenced and after 6 weeks of treatment, at which point testosterone and LH were assessed hourly.

[5] = three month dosing, Androxal arms combined, Testim arm

Which results are given for `CCN(CC)CCOc1ccc(/C(=C(\Cl)c2ccccc2)c2ccccc2)cc1` [Androxal™, trans-clomiphene]?
serum total testosterone in the follow-up period (total testosterone; 7-10 days after cessation of daily oral treatment): unexpectedly remained high; mean total testosterone (total testosterone; hypogonadal men, Androxal 50 mg, after 15 days): 589 ± 172 ng/dL; mean increase in testosterone from baseline (total testosterone; hypogonadal men, Androxal high dose (50 mg)): 294 ng/dL; mean increase in testosterone from baseline (total testosterone; hypogonadal men, Androxal low dose (12.5 mg)): 169 ng/dL; mean increase in testosterone from baseline (total testosterone; hypogonadal men, Androxal mid dose (25 mg)): 247 ng/dL; serum LH in the follow-up period (serum LH; 7-10 days after cessation of treatment): remained high; serum levels of LH during treatment (serum LH; hypogonadal men, two weeks treatment): statistically significant increase; serum levels of FSH (serum FSH): boosts serum FSH which remains high during the follow-up period; DHT/TT ratio [1]: 0.83; reduction in triglycerides, average (triglycerides): 19.1%; side effects different than placebo [2]: no side effects noted; Median Morning Testosterone, Baseline T (morning testosterone; Androxal 12.5 mg (n = 26), text uses ng/dl): 202; Median Morning Testosterone, Final T (morning testosterone; Androxal 12.5 mg (n = 26)): 432; Median Morning Testosterone, Baseline T (morning testosterone; Androxal 25 mg (n = 30)): 202; Median Morning Testosterone, Final T (morning testosterone; Androxal 25 mg (n = 30)): 416; men exceeding the normal maximum level of testosterone (1100 ng/dl) (morning testosterone; [5]): no men; men in the normal range for morning testosterone levels (300-1100 ng/dl) (morning testosterone; [5]): 69.9%; change in sperm counts from baseline (in words) (sperm counts; end of the three month dosing period): no statistically significant changes; median sperm count (sperm counts; end of three month dosing, Androxal arms combined, Testim arm): 93.8 million sperm/ml; tolerability compared to placebo [3]: generally well tolerated; mean serum testosterone (serum testosterone): statistically significant rise; LH and FSH levels (LH and FSH): significantly increased both LH and FSH; tolerability [4]: well tolerated by all subjects; 24 hr T <300 ng/dl @ Week 6 (testosterone; Androxal 6.25 mg): 4 out of 12; Any T >1100 ng/dl @ Week 6 (testosterone; Androxal 6.25 mg): 0 out of 12; 24 hr T <300 ng/dl @ Week 6 (testosterone; Androxal 12.5 mg): 2 out of 10; Any T >1100 ng/dl @ Week 6 (testosterone; Androxal 12.5 mg): 0 out of 10; 24 hr T <300 ng/dl @ Week 6 (testosterone; Androxal 25 mg): 0 out of 13; Any T >1100 ng/dl @ Week 6 (testosterone; Androxal 25 mg): 0 out of 13; morning testosterone after the seven day follow-up (in words) (testosterone; all Androxal arms (6.25, 12.5, 25 mg)): improved morning testosterone compared to baseline
